Measurements as given in patent US6838236B1, “VPR function and activity” (priority 1993, dated 2005).

How the values were obtained:
[1] = system: human rhabdomyosarcoma cell line TE671; conditions: well-described phenomenon; cited from earlier work
HIV-1 p24^gag antigen = test: HIV-1 p24gag antigen production, antigen-capture ELISA of culture medium; type: cell-based
[2] = system: TE671 rhabdomyosarcoma cells; test: Biological activity of baculovirus vpr supernatant on TE671 cells; type: cell-based, human
From the text: Recombinant vpr protein can be tested for biological activity in tissue culture. Vpr and control supernatants were dialyzed against PBS and applied to TE671 rhabdomyosarcoma cells. TE671 cells differentiate and cease to proliferate when transfected with the vpr gene or infected with HIV (Gras-Masse et al., supra; Levy et al., supra). […] Cells exposed to vpr for 3 days were examined for the presence of adult muscle myosin, a differentiation marker for these cells (Aguanno et al., Cancer Res., 1990, 50, 3377).

OM-10.1 cells = test: Intracellular p24 fluorescence in OM-10.1 cells; type: cell-based; conditions: vpr supernatant versus control supernatant
Experimental: In other experiments, OM-10.1 cells, which are T lymphoid in origin, were treated with either control supernatant lacking vpr or vpr supernatant from baculovirus-infected cells. Cells are shown in visible light and stained for intracellular p24 detected by fluorescence microscopy. The intensity of fluorescence is a measure of the virus expression.

[3] = continuous exposure to 20% vpr supernatant

Row | Compound | morphology and growth of stimulated TE671 cells [1] | increase in p24 release (HIV-1 p24^gag antigen; pNLpuroΔvpr-transfected cells exposed to phorbol ester) [fold] | p24 release (HIV-1 p24^gag antigen; undifferentiated pNLpuro-transfected cells exposed to phorbol ester) | time to cessation of proliferation [2, 3] | time to morphological differentiation [2, 3] | effect on cell survival ([2]; exposure to greater than 20% supernatant) | retrovirus expression, intracellular p24 fluorescence (OM-10.1 cells)
1 | CCCCCCCCCCCCCC(=O)O[C@@H]1[C@@H](C)[C@@]2(O)[C@@H](C=C(CO)C[C@]3(O)C(=O)C(C)=C[C@@H]23)[C@@H]2C(C)(C)[C@]12OC(C)=O [phorbol myristate acetate] | increase in overall size and length, are often multinucleated, and display slowed proliferation | 3 | no measurable p24 release |  |  |  | 
2 | vpr protein: HIV-1 viral protein R produced in baculovirus-infected insect cells, used as supernatant or partially purified |  |  |  | approximately 3 days | 7-9 days | rapidly fatal | induces a high level of retrovirus expression
